Data taken from patent US20240360177A1, “PEPTIDES WITH ANTIMICROBIAL ACTIVITIES” (priority 2021, published 2024).
pEC50: −log10 of the molar value. Values after ≈ are worked out from the molar mass of the structure shown. Read-outs that look alike come from different tables or passages of the source. Non-standard residues stand in square brackets, D forms with d. Residues, ends and D or L forms follow the SMILES beside them. Ahp = NCCCCCCC(=O)O; Ava = NCCCCC(=O)O

Tests used:
C. albicans [1] = assay: microbe, parasite or virus in culture; conditions: Candida albicans, ATCC90028, 24 h, read-out: MIC C. albicans
C. glabrata [2] = assay: microbe, parasite or virus in culture; conditions: Nakaseomyces glabratus, ATCC90030, 24 h, read-out: MIC C. glabrata
C. parapsilosis [3] = assay: microbe, parasite or virus in culture; conditions: Lodderomyces parapsilosis, ATCC22019, 24 h, read-out: MIC C. parapsilosis
C. krusei [4] = assay: microbe, parasite or virus in culture; conditions: Pichia kudriavzevii, 24 h, read-out: MIC C. krusei
C. auris [5] = assay: microbe, parasite or virus in culture; conditions: Candidozyma auris, 24 h, read-out: MIC C. auris
C. tropicalis [6] = assay: microbe, parasite or virus in culture; conditions: Candida tropicalis, ATCC90874, 24 h, read-out: MIC C. tropicalis
C. dubliniensis [7] = assay: microbe, parasite or virus in culture; conditions: Candida dubliniensis, 24 h, read-out: MIC C. dubliniensis
C. neoformans [8] = assay: microbe, parasite or virus in culture; conditions: Cryptococcus neoformans, ATCC90112, 72 h, read-out: MIC C. neoformans
C. gattii [9] = assay: microbe, parasite or virus in culture; conditions: Cryptococcus gattii, 72 h, read-out: MIC C. gattii
[10] = system: Trichophyton rubrum ATCC MYA-4438; assay: microbe, parasite or virus in culture; conditions: read-out: MIC Trichophyton rubrum
[11] = system: Epidermophyton floccosum ATCC 52066; assay: microbe, parasite or virus in culture; conditions: ATCC52066, read-out: MIC Epidermophyton floccosum
[12] = system: Microsporum gypseum ATCC 14683; assay: microbe, parasite or virus in culture; conditions: Nannizzia gypsea, ATCC14683, read-out: MIC Microsporum gypseum
[13] = system: Staphylococcus aureus ATCC 29213; type: cell-based
[14] = system: Escherichia coli ATCC 25922; type: cell-based
[15] = system: Pseudomonas aeruginosa ATCC 27853; type: cell-based
[16] = system: Salmonella senftenberg CDC 127; type: cell-based
[17] = system: Mycobacterium smegmatis ATCC 700084; type: cell-based; conditions: ATCC 700084, 48 h
C. albicans [18] = system: C. albicans
C. glabrata [19] = system: C. glabrata
C. parapsilosis [20] = system: C. parapsilosis
C. krusei [21] = system: C. krusei
C. auris [22] = system: C. auris
C. tropicalis [23] = system: C. tropicalis
C. neoformans [24] = system: C. neoformans
C. gattii [25] = system: C. gattii
[26] = system: Trichophyton rubrum ATCC MYA-4438
[27] = system: Epidermophyton floccosum ATCC 52066
[28] = system: Microsporum gypseum ATCC 14683
[29] = system: Enterococcus faecium ATCC 700221; conditions: CAMHB
human red blood cells = type: cell-based; conditions: PBS, 37° C., 1 hr
Experimental: Hemolysis is a liability for many other cationic peptides which prevented their utility to treat systemic infections. The hemolytic potential of the peptides was tested using red blood cells collected from fresh human blood after centrifugation at room temperature and washed in phosphate buffered saline (pH 7.4) three times and then incubated in phosphate buffered saline (PBS) at 37° C. for 1 hr with the peptides at concentrations of 3-300 μg/mL. Triton-X100 was used as the positive control while the vehicle (PBS) was used as the negative control. Amphotericin B and melittin, both known to be hemolytic were used as reference compounds. Following incubation, the mixture was centrifuged at room temperature, and the supernatant was separated and analyzed for light absorbance at a single wavelength of 410 nm. The background absorbance reading from the negative control was subtracted from all samples. The Triton-X-100 sample was used to represent 100% lysis. All test compound and positive control samples were normalized to this value to determine the percent lysis caused by the test compounds and the positive controls at each concentration.

C. dubliniensis [30] = conditions: ATCC MYA-578; 24 hrs
Scedosporium spp. = conditions: N = 2 strains; 72 hrs
HepG2 cells [31] = system: HepG2 cells
HepG2 cells [32] = assay: Cytotoxicity in HepG2 cells, intracellular ATP assay; conditions: Homo sapiens, HepG2, read-out: EC50 in HepG2 ATP assay, internal control, range across studies
[33] = system: Klebsiella pneumoniae ATCC 13883; type: cell-based
[34] = system: Shigella sonnei MMX 10772; assay: Antibacterial broth microdilution MIC, Shigella sonnei; type: cell-based; conditions: CAMHB

Row | SMILES | MIC Range Fusarium spp. (Fusarium spp.; N = 3 strains, 48 hrs) | MIC (C. albicans [1]) | MIC (C. glabrata [2]) | MIC (C. parapsilosis [3]) | MIC (C. krusei [4]) | MIC (C. auris [5]) | MIC (C. tropicalis [6]) | MIC (C. neoformans [8]) | MIC (C. gattii [9]) | MIC [10] | MIC [11] | MIC [12] | MIC Staphylococcus aureus [13] | MIC Escherichia coli [14] | MIC Pseudomonas aeruginosa [15] | MIC Salmonella senftenberg [16] | MIC Mycobacterium smegmatis [17] | MIC C. albicans (C. albicans [18]; 24 h) | MIC C. glabrata (C. glabrata [19]; 24 h) | MIC C. parapsilosis (C. parapsilosis [20]; 24 h) | other results
1 | OC(Cn1cncn1)(Cn1cncn1)c1ccc(F)cc1F [FLC, fluconazole] | >32 µg/mL | 0.25 µg/mL (≈ 0.816 µM) | 4 µg/mL (≈ 13.1 µM) | 2 µg/mL (≈ 6.53 µM) | 8 µg/mL (≈ 26.1 µM) | > 32 µg/mL | 0.25 µg/mL (≈ 0.816 µM) | 4 µg/mL (≈ 13.1 µM) | 8 µg/mL (≈ 26.1 µM) | 0.5 µg/mL (≈ 1.63 µM) | 1 µg/mL (≈ 3.27 µM) | 2 µg/mL (≈ 6.53 µM) |  |  |  |  |  |  |  |  | MIC (C. dubliniensis [7]): 0.5 µg/mL (≈ 1.63 µM)
2 | N=C(N)NCCC[C@@H](N)C(=O)N[C@@H](CCCNC(=N)N)C(=O)N[C@H](CCCNC(=N)N)C(=O)NCCCCCCC(=O)N[C@H](CCCNC(=N)N)C(=O)N[C@@H](CCCNC(=N)N)C(=O)N[C@H](CCCNC(=N)N)C(=O)NCCCCC(=O)N[C@H](CCCNC(=N)N)C(=O)N[C@@H](CCCNC(=N)N)C(=O)N[C@H](CCCNC(=N)N)C(=O)N[C@@H](CCCNC(=N)N)C(=O)NCCCCC(=O)N[C@H](CCCNC(=N)N)C(=O)N[C@@H](CCCNC(=N)N)C(=O)N[C@H](CCCNC(=N)N)C(=O)N[C@@H](CCCNC(=N)N)C(=O)N[C@@H](CS)C(=O)O [SEQ ID NO: 5, rRr-(Ahp)-rRr-(Ava)-rRrR-(Ava)-rRrR-Cys] (H-[dR]R[dR][Ahp][dR]R[dR][Ava][dR]R[dR]R[Ava][dR]R[dR]RC-OH) |  |  |  |  |  |  |  |  |  |  |  |  | 8 µg/mL (≈ 3.04 µM) | 16 µg/mL (≈ 6.08 µM) | 32 µg/mL (≈ 12.2 µM) | 16 µg/mL (≈ 6.08 µM) | 2 µg/mL (≈ 0.76 µM) | 1 µg/mL (≈ 0.38 µM) | 0.5 µg/mL (≈ 0.19 µM) | 0.25 µg/mL (≈ 0.0949 µM) | MIC C. krusei (C. krusei [21]; 24 h): 1 µg/mL (≈ 0.38 µM); MIC C. auris (C. auris [22]; 24 h): 0.25 µg/mL (≈ 0.0949 µM); MIC C. tropicalis (C. tropicalis [23]; 24 h): 0.25 µg/mL (≈ 0.0949 µM); MIC C. neoformans (C. neoformans [24]; 72 h): 1 µg/mL (≈ 0.38 µM); MIC C. gattii (C. gattii [25]; 72 h): 0.5 µg/mL (≈ 0.19 µM); MIC Range Fusarium spp. (Fusarium spp.; 48 h): 0.5 to 4 µg/mL; MIC Trichophyton rubrum [26]: 2 µg/mL (≈ 0.76 µM); MIC Epidermophyton floccosum [27]: 16 µg/mL (≈ 6.08 µM); MIC Microsporum gypseum [28]: 64 µg/mL (≈ 24.3 µM); MIC Enterococcus faecium [29]: 16 µg/mL (≈ 6.08 µM)
3 | C[C@@H]1[C@H](O)[C@@H](C)/C=C/C=C/C=C/C=C/C=C/C=C/C=C/[C@H](O[C@@H]2O[C@H](C)[C@@H](O)[C@H](N)[C@@H]2O)C[C@@H]2O[C@](O)(C[C@@H](O)C[C@@H](O)[C@H](O)CC[C@@H](O)C[C@@H](O)CC(=O)O[C@H]1C)C[C@H](O)[C@H]2C(=O)O [AMB, amphotericin B, reference compound] | 1 µg/mL (≈ 1.08 µM) |  |  |  |  |  |  |  |  |  |  |  |  |  |  |  |  |  |  |  | EC50 hemolysis (50% lysis) (human red blood cells): 6.95 µg/mL (≈ 7.52 µM); MIC C. albicans (C. albicans [18]; ATCC 90028 or 90029, 24 hrs): 0.5 µg/mL (≈ 0.541 µM); MIC C. glabrata (C. glabrata [19]; ATCC 90030, 24 hrs): 0.5 µg/mL (≈ 0.541 µM); MIC C. parapsilosis (C. parapsilosis [20]; ATCC 22019, 24 hrs): 0.25 µg/mL (≈ 0.271 µM); MIC C. krusei (C. krusei [21]; MMX 7135, 24 hrs): 0.5 µg/mL (≈ 0.541 µM); MIC C. auris (C. auris [22]; CDC 386, 24 hrs): 1 µg/mL (≈ 1.08 µM); MIC C. tropicalis (C. tropicalis [23]; ATCC 90874, 24 hrs): 0.5 µg/mL (≈ 0.541 µM); MIC C. dubliniensis (C. dubliniensis [30]): 0.25 µg/mL (≈ 0.271 µM); MIC C. neoformans (C. neoformans [24]; ATCC 90112, 72 hrs): 0.25 µg/mL (≈ 0.271 µM); MIC C. gattii (C. gattii [25]; ATCC MYA-4093, 72 hrs): 0.5 µg/mL (≈ 0.541 µM); MIC Range Scedosporium spp. (Scedosporium spp.): 1 to 2 µg/mL; MIC Trichophyton rubrum ([26]; 4-6 days): ≤0.06 µg/mL; MIC Epidermophyton floccosum ([27]; 4-6 days): 0.12 µg/mL (≈ 0.13 µM); MIC Microsporum gypseum ([28]; 4-6 days): 0.5 µg/mL (≈ 0.541 µM); EC50 cytotoxicity in HepG2, positive controls across studies (HepG2 cells [31]): 5.79 to 14.13 µg/mL
4 | C=C(C)[C@H]1Cc2c(ccc3c2O[C@@H]2COc4cc(OC)c(OC)cc4[C@@H]2C3=O)O1 [rotenone, reference compound] |  |  |  |  |  |  |  |  |  |  |  |  |  |  |  |  |  |  |  |  | pEC50 (HepG2 cells [32]): 6.23 to 6.89
5 | N=C(N)NCCC[C@H](NC(=O)[C@@H](CCCNC(=N)N)NC(=O)[C@H](CCCNC(=N)N)NC(=O)[C@@H](CCCNC(=N)N)NC(=O)CCCCNC(=O)[C@H](CCCNC(=N)N)NC(=O)[C@@H](CCCNC(=N)N)NC(=O)[C@H](CCCNC(=N)N)NC(=O)[C@@H](CCCNC(=N)N)NC(=O)CCCCNC(=O)[C@@H](CCCNC(=N)N)NC(=O)[C@H](CCCNC(=N)N)NC(=O)[C@@H](CCCNC(=N)N)NC(=O)CCCCCCNC(=O)[C@@H](CCCNC(=N)N)NC(=O)[C@H](CCCNC(=N)N)NC(=O)[C@@H](CCCNC(=N)N)NC(=O)[C@@H](N)CS)C(=O)O [SEQ ID NO: 6, Cys-rRr-(Ahp)-rRr-(Ava)-rRrR-(Ava)-rRrR] (H-C[dR]R[dR][Ahp][dR]R[dR][Ava][dR]R[dR]R[Ava][dR]R[dR]R-OH) |  |  |  |  |  |  |  |  |  |  |  |  | 8 µg/mL (≈ 3.04 µM) | 16 µg/mL (≈ 6.08 µM) | 16 µg/mL (≈ 6.08 µM) | 16 µg/mL (≈ 6.08 µM) | 1 µg/mL (≈ 0.38 µM) | 8 µg/mL (≈ 3.04 µM) | 0.5 µg/mL (≈ 0.19 µM) | 2 µg/mL (≈ 0.76 µM) | MIC Klebsiella pneumoniae [33]: 16 µg/mL (≈ 6.08 µM); MIC Shigella sonnei [34]: 16 µg/mL (≈ 6.08 µM); MIC C. krusei (C. krusei [21]; 24 h): 8 µg/mL (≈ 3.04 µM); MIC C. auris (C. auris [22]; 24 h): 4 µg/mL (≈ 1.52 µM); MIC C. tropicalis (C. tropicalis [23]; 24 h): 1 µg/mL (≈ 0.38 µM); MIC C. gattii (C. gattii [25]; 72 h): 1 µg/mL (≈ 0.38 µM); MIC Range Fusarium spp. (Fusarium spp.; 48 h): 0.25 to 0.5 µg/mL; MIC Enterococcus faecium [29]: 16 µg/mL (≈ 6.08 µM)
6 | CC[C@H](C)C[C@H](C)CCCCCCCCC(=O)N[C@H]1C[C@@H](O)[C@@H](NCCN)NC(=O)[C@@H]2[C@@H](O)CCN2C(=O)[C@H]([C@H](O)CCN)NC(=O)[C@H]([C@H](O)[C@@H](O)c2ccc(O)cc2)NC(=O)[C@@H]2C[C@@H](O)CN2C(=O)[C@H]([C@@H](C)O)NC1=O [CAS, caspofungin] | 32 µg/mL (≈ 29.3 µM) | 0.03 µg/mL (≈ 0.0274 µM) | 0.06 µg/mL (≈ 0.0549 µM) | 0.25 µg/mL (≈ 0.229 µM) | 0.25 µg/mL (≈ 0.229 µM) | 0.06 µg/mL (≈ 0.0549 µM) | 0.03 µg/mL (≈ 0.0274 µM) | 16 µg/mL (≈ 14.6 µM) | 16 µg/mL (≈ 14.6 µM) | 2 µg/mL (≈ 1.83 µM) | 0.06 µg/mL (≈ 0.0549 µM) | 0.12 µg/mL (≈ 0.11 µM) |  |  |  |  |  |  |  |  | MIC Range Scedosporium spp. (Scedosporium spp.): 32 µg/mL (≈ 29.3 µM)
